Experimental data taken from PMC10709440, “High-throughput ligand profile characterization in novel cell lines expressing seven heterologous insect olfactory receptors for the detection of volatile plant biomarkers” (Scientific Reports, 2023).
Read-outs that look alike come from different tables or passages of the source.

How the values were obtained:
OR47a = tested on: OR47a; parameters: method as in earlier work; conditions: DoOR database value; ref DoOR; cited from earlier work
OR49b = tested on: OR49b; parameters: method as in earlier work; conditions: DoOR database value, ref DoOR, cited from earlier work
OR98a = tested on: OR98a; parameters: method as in earlier work; conditions: DoOR database value, ref DoOR, cited from earlier work
OR85b = tested on: OR85b; parameters: method as in earlier work; conditions: DoOR database value, ref DoOR, cited from earlier work
Drosophila OR85b = target: T1, Drosophila OR85b (Drosophila melanogaster, UniProt Q9VHQ7); test: Calcium ion fluorescence (GCaMP6) assay, OR85b stable HEK293 cell line; assay type: cell-based; conditions: for activation at 1 µM / activation at 10 µM / activation at 100 µM: HEK293, read-out: OR85b response (VUAA1-normalized response); for Average response: VUAA1-normalized response, mean of biological replicates
T1 construct: expressed in transfected cells
T1 sequence (Q9VHQ7 1-390): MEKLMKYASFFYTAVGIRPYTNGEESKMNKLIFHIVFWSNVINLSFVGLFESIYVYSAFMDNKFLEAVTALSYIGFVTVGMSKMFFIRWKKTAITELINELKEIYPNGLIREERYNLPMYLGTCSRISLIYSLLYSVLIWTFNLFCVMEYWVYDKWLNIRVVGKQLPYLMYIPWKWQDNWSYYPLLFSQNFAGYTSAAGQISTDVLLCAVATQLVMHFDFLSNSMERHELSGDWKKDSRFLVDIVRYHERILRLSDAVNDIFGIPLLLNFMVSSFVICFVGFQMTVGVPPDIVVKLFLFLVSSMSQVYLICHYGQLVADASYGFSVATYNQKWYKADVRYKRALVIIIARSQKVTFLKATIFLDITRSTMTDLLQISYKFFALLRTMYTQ
T1 sequence (Q9VNB5 1-486 partner): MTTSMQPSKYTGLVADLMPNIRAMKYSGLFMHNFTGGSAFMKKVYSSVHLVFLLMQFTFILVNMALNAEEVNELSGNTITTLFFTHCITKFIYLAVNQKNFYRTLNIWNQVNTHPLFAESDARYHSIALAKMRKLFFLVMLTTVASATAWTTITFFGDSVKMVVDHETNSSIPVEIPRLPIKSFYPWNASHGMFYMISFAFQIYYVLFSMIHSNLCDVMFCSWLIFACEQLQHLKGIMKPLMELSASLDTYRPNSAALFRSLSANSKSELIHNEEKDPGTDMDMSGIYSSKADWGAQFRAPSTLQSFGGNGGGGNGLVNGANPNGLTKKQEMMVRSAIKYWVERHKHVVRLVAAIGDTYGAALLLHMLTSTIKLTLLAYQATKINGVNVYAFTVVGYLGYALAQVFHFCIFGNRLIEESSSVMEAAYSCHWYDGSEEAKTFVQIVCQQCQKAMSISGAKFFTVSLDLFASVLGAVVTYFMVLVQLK
Protocol: These VUAA1 normalized ∆F values were used to compare the different receptors and ligands.
The concentration-dependent effect of the reference ligands on their cognate cell lines was examined in more detail. Twelve different ligand concentrations were measured on each cell line in an overall 0.01 μM to 100 μM concentration range with 5 repetitions with three technical replicates each time.
Twelve thousand to 18,000 cells were plated into each well of a black wall, transparent bottom 384-well microplate (Greiner) 48 h or 72 h before the measurements and were simultaneously treated with 1 μg/mL doxycycline. […] The plate has 24 columns, thus we could record responses in up to eight different cell lines in each plate. On the day of the experiment, the growth medium was replaced with 20 µL assay buffer/well (140 mM NaCl, 5 mM KCl, 2 mM CaCl2, 1 mM MgCl2, 5 mM HEPES-Na, 20 mM glucose, pH 7.3, 340 mOsm). […] Baseline fluorescence (F0) was recorded for 5 s, after which 7 µL VOC buffer (140 mM NaCl, 5 mM KCl, 2 mM CaCl2, 1 mM MgCl2, 5 mM HEPES-Na, 31 mM glucose, 0.1% DMSO, pH 7.3, 340 mOsm) was injected into each well in one row and the fluorescence response was recorded for an additional 30 s, at a rate of one read/sec. VOC solutions (VOC buffer with 4× concentration of the final measured VOC concentration, 9 µL/well was injected) were measured on the same wells in a second round with the same protocol. Each individual concentration of a specific VOC sample was recorded in three wells for the same cell line on the same microplate. The raw data were exported in xls file format, F0 and FMAX values, and the fluorescence intensity changes (∆F) were calculated in Excel (Microsoft) (Supplementary file Data summary.xlsx) using the following equation: ΔF=FMAX-F0/F0 (see also Fig. 1C). On each plate, we recorded the response of each cell line to 50 µM VUAA1. The average of these ∆F values of each cell line were used to calculate the VUAA1-normalized values for the rest of the plate, by dividing VOC response ∆F values by the average VUAA1 response ∆F value of the corresponding OR cell line. Each VOC-OR combination was measured three times as technical replicates. […] The average of these replicates were used as one ∆F and VUAA1-normalized ∆F in the following analysis.
In the next rows we tested the reference VOCs (or other VOCs known to activate the corresponding cell lines), in order to test if all cell lines are responsive. The remaining rows were used to test VOCs with unknown effect.
The recorded FMAX, F0, ∆F, VUAA1-normalized ∆F values, as well as the OR name, the name of the tested sample, and the final concentration for each well were copied into supplementary file Data summary.xlsx, that was used to summarize all the plates recorded. Here, the averages of the measurements were calculated for each receptor-VOC-concentration combination.

OR10a = tested on: OR10a; parameters: method as in earlier work; conditions: DoOR database value, ref DoOR, cited from earlier work
[1] = ligand concentration 1 (unit not given), threshold 0.05, below shown as 0
[2] = ligand concentration 10 (unit not given), threshold 0.05, below shown as 0
[3] = ligand concentration 100 (unit not given), threshold 0.05, below shown as 0
[4] = concentration 1, normalized fluorescence change, values below 0.05 threshold given as 0
[5] = concentration 10, normalized fluorescence change, values below 0.05 threshold given as 0
[6] = concentration 100, normalized fluorescence change, values below 0.05 threshold given as 0

Compound	OR47a DoOR response (OR47a)	OR49b DoOR response (OR49b)	OR98a DoOR response (OR98a)	OR85b DoOR response (OR85b)	activation at 1 µM (Drosophila OR85b) [%]	activation at 10 µM (Drosophila OR85b) [%]	activation at 100 µM (Drosophila OR85b) [%]	Average response (Drosophila OR85b; OR85b cell line, cc. 1 µM)	Average response (Drosophila OR85b; OR85b cell line, cc. 10 µM)	Average response (Drosophila OR85b; OR85b cell line, cc. 100 µM)	DF norm AVERAGE OR85b (Drosophila OR85b; [1])	DF norm AVERAGE OR85b (Drosophila OR85b; [2])	DF norm AVERAGE OR85b (Drosophila OR85b; [3])	OR10a DoOR response (OR10a)	DF norm AVERAGE OR85b (Drosophila OR85b; [4])	DF norm AVERAGE OR85b (Drosophila OR85b; [5])	DF norm AVERAGE OR85b (Drosophila OR85b; [6])	also measured
C=C1CCC2CC1C2(C)C (stereo not drawn) [beta-pinene]	-0.021	0.011	-0.003	0.053	0	10	9	0.00	0.10	0.09	0	0.09683	0.0913	-0.005				
C=C(C)[C@H]1CC=C(C)CC1 [limonene]	0.056	0.016	0.09	0.10				0.07	0.09	0.0644	0.07022	0.08814	0.06443	-0.001				OR85b response (VUAA1-normalized response) (Drosophila OR85b; VOC concentration 1 μM): 0.07; OR85b response (VUAA1-normalized response) (Drosophila OR85b; VOC concentration 10 μM): 0.09; OR85b response (VUAA1-normalized response) (Drosophila OR85b; VOC concentration 100 μM): 0.0644
CC(=O)OCC(C)C [isobutyl acetate]	0.58	0.006	0.67	0.39	0	0	0	0.044	0.00	0.03	0	0	0	0.35				
CCCCCCCCC=O [nonanal]								0.00	0.00	0.00	0	0	0					OR49b DoOR response (OR49b; OR49b): 0.03; OR98a DoOR response (OR98a; OR98a): 0.085; OR85b DoOR response (OR85b; OR85b): 0.091; OR85b response (VUAA1-normalized) at 1 μM (Drosophila OR85b; OR85b cell line, VOC concentration 1 μM): 0.00; OR85b response (VUAA1-normalized) at 10 μM (Drosophila OR85b; OR85b cell line, VOC concentration 10 μM): 0.00; OR85b response (VUAA1-normalized) at 100 μM (Drosophila OR85b; OR85b cell line, VOC concentration 100 μM): 0.00; OR10a DoOR response (OR10a; OR10a): 0.05
CCCCOC(=O)CC [butyl propanoate]	0.38													0.011				
CCCCCO [1-pentanol]	0.17	0.09	0.23	0.51	0	0	0	0.00	0.00	0.00				0.034	0	0	0	
CCCCCCCCCC=O [decanal]					0	0	0	0.00	0.0324	0.00	0	0	0	0.08				
Cc1cccc(O)c1 [3-methylphenol]		0.54			0	0	0	0.0267	0.0173	0.02					0	0	0	
(+)-beta-cedrene								0.00	0.0468	0.0135					0	0	0	OR85b response (VUAA1-normalized response) (Drosophila OR85b; VOC concentration 1 μM): 0.00; OR85b response (VUAA1-normalized response) (Drosophila OR85b; VOC concentration 10 μM): 0.00; OR85b response (VUAA1-normalized response) (Drosophila OR85b; VOC concentration 100 μM): 0.00
